Earlier results in PMC4245168 (ACS Chemical Biology, 2014).

Tested on: parent TPR2A protein
Settings: MEAVD versus MEEVD, ref [8]; cited from earlier work

MEAVD
ΔΔG associated with the difference between MEAVD and MEEVD binding: ~0.6 kcal/mol
